According to ChEMBL document CHEMBL1156293, “Synthesis of a novel tricyclic 1,2,3,4,4a,5,6,10b-octahydro-1,10-phenanthroline ring system and CXCR4 antagonists with potent activity against HIV-1” (Bioorg Med Chem Lett, 2010):

Columns and labels:
[1] = system: Human immunodeficiency virus 1; assay: Antiviral activity against HIV1 3B in human HOS cells expressing human […]/pHIV-LTR-luciferase assessed as blockade of viral infection into cells; type: functional, organism-based; conditions: Human immunodeficiency virus 1, 3B
[2] = Cytotoxicity against human HOS cells; type: cell-based
[3] = Volume of distribution at steady state in rat at 1 mg/kg, iv; type: ADME, organism-based; parameters: dose 1 mg/kg, route intravenous; conditions: in vivo, read-out: Vdss
[4] = Volume of distribution at steady state in dog at 1 mg/kg, iv; type: ADME, organism-based, Canis lupus familiaris; parameters: dose 1 mg/kg, route intravenous; conditions: in vivo, read-out: Vdss
[5] = Half life in rat at 3 mg/kg, po; type: ADME, organism-based; parameters: dose 3 mg/kg, route oral; conditions: in vivo
[6] = Half life in dog at 3 mg/kg, po; type: ADME, organism-based, Canis lupus familiaris; parameters: dose 3 mg/kg, route oral; conditions: in vivo
Rattus norvegicus = assay: Dose normalized AUC in rat at 3 mg/kg, po; type: ADME, organism-based; parameters: dose 3 mg/kg, route oral; conditions: in vivo
Canis familiaris = assay: Dose normalized AUC in dog at 3 mg/kg, po; type: ADME, organism-based, Canis lupus familiaris; parameters: dose 3 mg/kg, route oral; conditions: in vivo

Row | Compound | IC50 [1] | CC50 [2] | also measured
1 | CN(C)CCCn1c(CN2CCC[C@H]3CCc4cccnc4[C@@H]32)nc2ccccc21 | 0.33 µM | 3.7 µM | 
2 | CN1CCC(N(C)c2cccc3nc(CN4CCC[C@H]5CCc6cccnc6[C@H]54)cn23)CC1 | 0.038 µM | 1.3 µM | 
3 | CN(C)CCCn1c(CN2CCC[C@@H]3CCc4cccnc4[C@H]32)nc2ccccc21 | 0.14 µM | 3.5 µM | 
4 | CN1CCN(c2cccc3nc(CN4CCC[C@@H]5CCc6cccnc6[C@@H]54)cn23)CC1 | 0.1 µM | 8.5 µM | 
5 | CN(C)CCCn1c(CN2CCC[C@@H]3CCc4cccnc4[C@@H]32)nc2ccccc21 | 0.53 µM | 4.2 µM | 
6 | c1cnc2c(c1)CC[C@@H]1CCCN(Cc3cn4c(N5CCOCC5)cccc4n3)[C@H]21 | 1.2 µM | 6.6 µM | 
7 | CN1CCN(c2cccc3nc(CN(C)[C@H]4CCCc5cccnc54)cn23)CC1 |  |  | Vd [3]: 5.5 L/kg; Vd [4]: 7.6 L/kg; half-life [5]: 4.9 h; half-life [6]: 8.5 h; AUC (Rattus norvegicus): 100 ng·h/mL/(mg/kg); AUC (Canis familiaris): 160 ng·h/mL/(mg/kg)

Now from value to molecule, other results behind:

Row | IC50 [1] | Compound | CC50 [2] | also measured
8 | 0.021 µM | CN(C)[C@@H]1CCN(c2cccc3nc(CN4CCC[C@H]5CCc6cccnc6[C@H]54)cn23)C1 | 1.6 µM | 
9 | 0.002 µM | c1cnc2c(c1)CC[C@@H]1CCCN(Cc3cn4c(N5CCN6CCCC6C5)cccc4n3)[C@H]21 (some centres undefined) | 2.98 µM | 
10 | 0.009 µM | CN1CCC(N(C)c2cccc3nc(CN4CCC[C@H]5CCc6cccnc6[C@H]54)cn23)C1 (some centres undefined) | 1.57 µM | 
11 | 0.005 µM | CN(C)CCN(C)c1cccc2nc(CN3CCC[C@H]4CCc5cccnc5[C@H]43)cn12 | 1.45 µM | 
12 | 0.035 µM | CN(C)CCCn1c(CN2CCC[C@H]3CCc4cccnc4[C@H]32)nc2ccccc21 | 6 µM | 
13 | 0.015 µM | CN(C)C1CCN(c2cccc3nc(CN4CCC[C@H]5CCc6cccnc6[C@H]54)cn23)CC1 | 3.85 µM | 
14 | 0.032 µM | CN1CCN(c2cccc3nc(CN4CCCC5CCc6cccnc6C54)cn23)CC1 (racemic) | 9.6 µM | 
15 | 0.05 µM | CN1CCN(c2cccc3nc(CN4CCC[C@@H]5CCc6cccnc6[C@H]54)cn23)CC1 | 9.9 µM | 
